This is an account of results in ChEMBL document CHEMBL3137667, “[Drug-induced liver injury; fourteenth updated edition of the bibliographic database of liver injuries and related drugs]” (Gastroenterol Clin Biol, 2004).

Series [1] is described as follows: Times to onset, minimal and maximal, observed in the indexed observations. [column 'DELAI' in source]. To be noted: human.
The conditions of series [2]: human.
The conditions of series [3]: human. The source holds these as a separate data set.
For series [4] the following is noted: human. The source holds these as a separate data set.
The conditions of series [5]: human. The source holds these as a separate data set.
Series [6] is described as follows: Highest frequency of moderate liver toxicity observed during clinical trials, expressed as a percentage. [column '% BIOL' in source]. The note with it: human.
The conditions of series [7]: human. The source holds these as a separate data set.
The conditions of series [8]: human. The source holds these as a separate data set.
For series [9] the following is noted: human, serum.
Series [10] in a line: Proposed mechanism(s) of liver damage. [column 'MEC' in source]. The note with it: human.
The conditions of series [11]: human. The source holds these as a separate data set.
The conditions of series [12]: human, serum, 4383 h.
The conditions of series [13]: human. This is another data set of the same source.
For series [14] the following is noted: human. This is another data set of the same source.
Series [15] is described as follows: Highest frequency of acute liver toxicity observed during clinical trials, expressed as a percentage. [column '% AIGUE' in source]. The note with it: human.
For series [16] the following is noted: human. This is another data set of the same source.
For series [17] the following is noted: human, serum. This is another data set of the same source.
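For Hepatotoxicity (association with vascular disease) in this document: count of indexed literature references reporting vascular liver injury in humans, e.g. peliosis hepatitis, hepatic veno-occlusive disease or Budd-Chiari syndrome.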
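For Hepatotoxicity (benign tumour) in this document: value is a count of indexed literature references citing a benign tumour confirmed by histopathology.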
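For Hepatotoxicity (choleostasis) in this document: human cholestatic liver injury, shown by histopathology or by peak ALT or AST elevation over alkaline phosphatase ratio below 2, value counts indexed literature reports.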
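For Hepatotoxicity (chronic liver disease) in this document: chronic liver injury confirmed by histopathology or persistently raised serum aminotransferase activity beyond 6 months, value given as the count of indexed literature references.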
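For Hepatotoxicity (cirrhosis) in this document: value is a count of indexed literature references reporting cirrhosis confirmed by histopathology.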
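For Hepatotoxicity (cytolytic) in this document: human cytolytic liver injury, shown by histopathology or by a ratio above 5 of peak ALT or AST elevation to alkaline phosphatase elevation, value counts indexed references.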
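For Hepatotoxicity (granulomatous hepatitis) in this document: value is a count of indexed literature references reporting granulomatous liver disease confirmed by histopathology.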
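For Hepatotoxicity (malignant tumour) in this document: malignant tumour confirmed by histopathology, value gives the count of indexed literature references reporting it.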
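For Hepatotoxicity (severe hepatitis) in this document: human clinical data: severe hepatitis, meaning potentially life-threatening liver failure or clinically observed cases, the value counts how many indexed literature references report it.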
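For Hepatotoxicity (steatosis) in this document: steatosis confirmed by histopathology, value is the count of indexed references.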

Take `Cc1c(N(C)C)c(=O)n(-c2ccccc2)n1C` [AMINOPYRINE]: in series [1], the “Hepatotoxicity (time to onset)” value is 3 months. In addition, the “Hepatotoxicity (animal toxicity known)” value in series [2] is “yes”. In series [3], the “Hepatotoxicity (granulomatous hepatitis)” value was 0. In [4], the “Hepatotoxicity (benign tumour)” value stood at 0. Besides, the “Hepatotoxicity (steatosis)” value in [5] was determined as 1. The results for the “Hepatotoxicity (moderate)” value in series [6] (Liver) and in series [17] were 0% and 2, respectively. In addition, the “Hepatotoxicity (choleostasis)” value in series [7] came out at 1. Besides, the “Hepatotoxicity (severe hepatitis)” value in [8] (Liver) amounted to 2. The “Hepatotoxicity (acute)” value was 6 in [9] and 0% in series [15] (Liver). Besides, the “Hepatotoxicity (mechanism)” value in [10] was “Dose-dependant”. For the same compound, the “Hepatotoxicity (cytolytic)” value in [11] is 3. Further, in series [12], the “Hepatotoxicity (chronic liver disease)” value is listed as 0. The “Hepatotoxicity (malignant tumour)” value in series [13] stood at 0. Besides, in series [14], the “Hepatotoxicity (association with vascular disease)” value is on record as 0. Also, the “Hepatotoxicity (cirrhosis)” value in series [16] is 0.
On to `O=NN(CCCl)C(=O)NCCCl` [CARMUSTINE], for which the “Hepatotoxicity (time to onset)” value in [1] worked out at 1 week - 6 weeks. For the same compound, the “Hepatotoxicity (animal toxicity known)” value in series [2] is given as “yes”. The “Hepatotoxicity (granulomatous hepatitis)” value in series [3] is listed as 0. In addition, the “Hepatotoxicity (benign tumour)” value in series [4] was found to be 0. In series [5], the “Hepatotoxicity (steatosis)” value was determined as 0. Moreover, the “Hepatotoxicity (moderate)” value is reported as 26% in series [6] and 8 in [17]. The “Hepatotoxicity (choleostasis)” value in series [7] is recorded as 1. In [8], the “Hepatotoxicity (severe hepatitis)” value amounted to 2. In addition, the “Hepatotoxicity (acute)” value in [9] stood at 6; in series [15], 23%. Also, the “Hepatotoxicity (mechanism)” value in series [10] was “Dose-dependant”. For the same compound, the “Hepatotoxicity (cytolytic)” value in series [11] worked out at 3. Also, in series [12], the “Hepatotoxicity (chronic liver disease)” value is on record as 0. For the same compound, in series [13], the “Hepatotoxicity (malignant tumour)” value is reported as 0. In addition, the “Hepatotoxicity (association with vascular disease)” value in [14] was found to be 10. The “Hepatotoxicity (cirrhosis)” value in series [16] is given as 0.
`COc1cc2c(c(OC)c1OC)-c1ccc(OC)c(=O)cc1[C@@H](NC(C)=O)CC2` [COLCHICINE]: in [1], the “Hepatotoxicity (time to onset)” value came out at 2 hours - 2 days. Besides, the “Hepatotoxicity (animal toxicity known)” value in series [2] is recorded as “yes”. The “Hepatotoxicity (granulomatous hepatitis)” value in series [3] was found to be 0. The “Hepatotoxicity (benign tumour)” value in series [4] was 0. Further, the “Hepatotoxicity (steatosis)” value in [5] is recorded as 0. The figures for the “Hepatotoxicity (moderate)” value in [6] and in series [17] were 28.6% and 2, respectively. The “Hepatotoxicity (choleostasis)” value in series [7] came out at 0. Besides, in [8], the “Hepatotoxicity (severe hepatitis)” value is listed as 0. The “Hepatotoxicity (acute)” value in series [9] was found to be 7; in series [15] it was 0%. Further, in series [10], the “Hepatotoxicity (mechanism)” value is recorded as “Overdose”. Further, the “Hepatotoxicity (cytolytic)” value in series [11] is reported as 3. Further, in [12], the “Hepatotoxicity (chronic liver disease)” value is 0. The “Hepatotoxicity (malignant tumour)” value in series [13] is on record as 0. For the same compound, in [14], the “Hepatotoxicity (association with vascular disease)” value is 0. The “Hepatotoxicity (cirrhosis)” value in series [16] is listed as 0.
Turning to `C[C@@H](CN1CC(=O)NC(=O)C1)N1CC(=O)NC(=O)C1` [DEXRAZOXANE], the “Hepatotoxicity (time to onset)” value in [1] worked out at 1 week. Besides, the “Hepatotoxicity (animal toxicity known)” value in series [2] is listed as “yes”. The “Hepatotoxicity (granulomatous hepatitis)” value in [3] was 0. Besides, the “Hepatotoxicity (benign tumour)” value in series [4] is recorded as 0. Further, the “Hepatotoxicity (steatosis)” value in [5] is 0. For the same compound, the “Hepatotoxicity (moderate)” value in series [6] was 13%; in series [17] it was 3. For the same compound, the “Hepatotoxicity (choleostasis)” value in series [7] worked out at 0. For the same compound, in series [8], the “Hepatotoxicity (severe hepatitis)” value is 0. The entries for the “Hepatotoxicity (acute)” value in series [9] and in series [15] were 0 and 0%, respectively. Also, the “Hepatotoxicity (mechanism)” value in series [10] is listed as “Dose-dependant”. Also, in series [11], the “Hepatotoxicity (cytolytic)” value stood at 0. Further, the “Hepatotoxicity (chronic liver disease)” value in series [12] is reported as 0. The “Hepatotoxicity (malignant tumour)” value in series [13] is given as 0. The “Hepatotoxicity (association with vascular disease)” value in series [14] came to 0. In addition, the “Hepatotoxicity (cirrhosis)” value in series [16] is reported as 0.
For the compound `CCOc1ccc(NC(C)=O)cc1` [PHENACETIN], the “Hepatotoxicity (time to onset)” value in [1] turned out to be 2 days - 2 years. Also, in series [2], the “Hepatotoxicity (animal toxicity known)” value is reported as “yes”. Moreover, the “Hepatotoxicity (granulomatous hepatitis)” value in series [3] is listed as 2. Also, the “Hepatotoxicity (benign tumour)” value in series [4] is on record as 0. Moreover, the “Hepatotoxicity (steatosis)” value in series [5] is 1. For the same compound, the entries for the “Hepatotoxicity (moderate)” value in series [6] and in [17] were 0% and 2, respectively. Further, in series [7], the “Hepatotoxicity (choleostasis)” value is recorded as 0. For the same compound, the “Hepatotoxicity (severe hepatitis)” value in [8] was determined as 0. For the same compound, the figures for the “Hepatotoxicity (acute)” value in series [9] and in series [15] were 4 and 0%, respectively. The “Hepatotoxicity (mechanism)” value in series [10] was “Dose-dependant”. For the same compound, in series [11], the “Hepatotoxicity (cytolytic)” value was determined as 0. The “Hepatotoxicity (chronic liver disease)” value in series [12] stood at 0. The “Hepatotoxicity (malignant tumour)” value in series [13] came to 0. Moreover, in [14], the “Hepatotoxicity (association with vascular disease)” value amounted to 0. Moreover, the “Hepatotoxicity (cirrhosis)” value in series [16] is recorded as 0.
Consider `COc1ccc(NS(=O)(=O)c2ccc(N)cc2)nn1` [SULFAMETHOXYPYRIDAZINE], for which the “Hepatotoxicity (time to onset)” value in series [1] is recorded as 1 month - 2 months. In series [2], the “Hepatotoxicity (animal toxicity known)” value is on record as “yes”. Moreover, the “Hepatotoxicity (granulomatous hepatitis)” value in series [3] is given as 0. In [4], the “Hepatotoxicity (benign tumour)” value came out at 0. For the same compound, the “Hepatotoxicity (steatosis)” value in [5] stood at 0. In addition, the “Hepatotoxicity (moderate)” value is listed as 0% in series [6] and 0 in series [17]. Moreover, in [7], the “Hepatotoxicity (choleostasis)” value is given as 2. Moreover, the “Hepatotoxicity (severe hepatitis)” value in series [8] stood at 0. In addition, the entries for the “Hepatotoxicity (acute)” value in series [9] and in series [15] were 4 and 0%, respectively. Further, the “Hepatotoxicity (cytolytic)” value in series [11] is on record as 4. Further, the “Hepatotoxicity (chronic liver disease)” value in series [12] turned out to be 0. Besides, in [13], the “Hepatotoxicity (malignant tumour)” value came to 0. Moreover, the “Hepatotoxicity (association with vascular disease)” value in series [14] is on record as 0. In [16], the “Hepatotoxicity (cirrhosis)” value was 0.
As to `COc1ccc2c(C(=S)N(C)CC(=O)O)cccc2c1C(F)(F)F` [TOLRESTAT], in series [1], the “Hepatotoxicity (time to onset)” value was 7 weeks - 6 months. Also, the “Hepatotoxicity (animal toxicity known)” value in series [2] is “yes”. For the same compound, the “Hepatotoxicity (granulomatous hepatitis)” value in series [3] worked out at 0. For the same compound, in series [4], the “Hepatotoxicity (benign tumour)” value came out at 0. Moreover, the “Hepatotoxicity (steatosis)” value in series [5] turned out to be 0. Moreover, the “Hepatotoxicity (moderate)” value is listed as 15.4% in series [6] and 7 in series [17]. The “Hepatotoxicity (choleostasis)” value in [7] was 0. Moreover, the “Hepatotoxicity (severe hepatitis)” value in series [8] is reported as 1. Besides, the “Hepatotoxicity (acute)” value in series [9] was 2; in series [15] it was 0.2%. Moreover, the “Hepatotoxicity (cytolytic)” value in series [11] is reported as 2. In addition, in series [12], the “Hepatotoxicity (chronic liver disease)” value worked out at 0. In series [13], the “Hepatotoxicity (malignant tumour)” value was 0. The “Hepatotoxicity (association with vascular disease)” value in series [14] worked out at 0. In [16], the “Hepatotoxicity (cirrhosis)” value came out at 0.
Regarding `OCC(Br)(Br)Br` [TRIBROMOETHANOL], the “Hepatotoxicity (time to onset)” value in series [1] is given as 1 day - 4 days. Moreover, the “Hepatotoxicity (animal toxicity known)” value in series [2] is given as “yes”. Moreover, the “Hepatotoxicity (granulomatous hepatitis)” value in [3] was 0. Moreover, in [4], the “Hepatotoxicity (benign tumour)” value was found to be 0. The “Hepatotoxicity (steatosis)” value in series [5] amounted to 9. In addition, the “Hepatotoxicity (moderate)” value in [6] is 0%; in [17], 1. The “Hepatotoxicity (choleostasis)” value in series [7] turned out to be 0. For the same compound, the “Hepatotoxicity (severe hepatitis)” value in [8] stood at 15. Besides, the “Hepatotoxicity (acute)” value in series [9] turned out to be 9; in series [15] it was 0.1%. The “Hepatotoxicity (cytolytic)” value in [11] is reported as 8. Besides, in [12], the “Hepatotoxicity (chronic liver disease)” value is 0. Further, the “Hepatotoxicity (malignant tumour)” value in [13] stood at 0. For the same compound, in [14], the “Hepatotoxicity (association with vascular disease)” value came to 0. In addition, the “Hepatotoxicity (cirrhosis)” value in series [16] was 0.
Consider `C[C@H](CCC(=O)O)[C@H]1CC[C@H]2[C@@H]3[C@@H](O)C[C@@H]4C[C@H](O)CC[C@]4(C)[C@H]3CC[C@]12C` [URSODIOL], for which the “Hepatotoxicity (time to onset)” value in series [1] was found to be 3 weeks - 14 weeks. Moreover, in series [2], the “Hepatotoxicity (animal toxicity known)” value was “yes”. Further, in series [3], the “Hepatotoxicity (granulomatous hepatitis)” value is on record as 0. The “Hepatotoxicity (benign tumour)” value in series [4] is on record as 0. The “Hepatotoxicity (steatosis)” value in [5] is on record as 0. Moreover, the “Hepatotoxicity (moderate)” value in [6] stood at 4.2%; in series [17], 8. In addition, the “Hepatotoxicity (choleostasis)” value in series [7] amounted to 0. In series [8], the “Hepatotoxicity (severe hepatitis)” value is 0. The “Hepatotoxicity (acute)” value is 1 in [9] and 0% in series [15]. Also, in series [11], the “Hepatotoxicity (cytolytic)” value came out at 0. In addition, the “Hepatotoxicity (chronic liver disease)” value in series [12] was 0. For the same compound, the “Hepatotoxicity (malignant tumour)” value in [13] came to 0. In series [14], the “Hepatotoxicity (association with vascular disease)” value is listed as 0. In addition, the “Hepatotoxicity (cirrhosis)” value in series [16] came out at 0.
Take ASPARAGINASE: in [2], the “Hepatotoxicity (animal toxicity known)” value is listed as “yes”. Besides, the “Hepatotoxicity (granulomatous hepatitis)” value in series [3] is recorded as 0. Further, the “Hepatotoxicity (benign tumour)” value in [4] is reported as 0. Moreover, the “Hepatotoxicity (steatosis)” value in [5] was 9. Moreover, the “Hepatotoxicity (moderate)” value in series [6] came out at 63%; in series [17], 27. Further, in [7], the “Hepatotoxicity (choleostasis)” value is given as 0. Moreover, in series [8], the “Hepatotoxicity (severe hepatitis)” value came to 2. In addition, the “Hepatotoxicity (acute)” value was determined as 2 in series [9] and 2.9% in series [15]. The “Hepatotoxicity (mechanism)” value in series [10] is “Dose-dependant”. For the same compound, the “Hepatotoxicity (cytolytic)” value in [11] was 1. The “Hepatotoxicity (chronic liver disease)” value in series [12] is on record as 0. Moreover, in series [13], the “Hepatotoxicity (malignant tumour)” value was 0. In addition, the “Hepatotoxicity (association with vascular disease)” value in series [14] is on record as 0. The “Hepatotoxicity (cirrhosis)” value in series [16] was determined as 0.
